Experimental findings from patent US8710064B2, “2-aryl-4-quinazolinones and their pharmaceutical compositions” (China Medical University, priority 2011, dated 2014) are described below.

One series relates to M21. Briefly: trypan blue exclusion assay, M21 cells. It is filed as cell-based. The settings on record: Homo sapiens; M21 skin cancer; trypan blue exclusion assay; read-out: IC50 M21. On the procedure:
M21 cell line (human malignant melanoma) was provided by Dr. Feng-Yao Tang (China Medical University, Taiwan). Cells were grown in monolayer culture in RPMI-1640 medium, Eagle's minimum essential medium or Dulbecco's modified Eagles medium (Invitrogen Corporation, Grand Island, N.Y., USA) containing 10% fetal bovine serum (FBS; HyClone, Logan, Utah, USA), 100 U/ml penicillin and 100 μg/ml streptomycin (Gibco BRL, Rockville, Md., USA).
(§1) Cell viability was also determined by trypan-blue exclusion assay. Cells were seeded in 6-well plates (2×10^4/well) for trypan blue exclusion assay, and incubated for 24 hours at 37° C. Culture medium containing test compound or DMSO (0.006%) was added to each well, and cells were incubated at 37° C. At indicated time points (0, 24, 48, 72 and 96 hr), cells were suspended with 0.05% trypsin-EDTA, and stained with trypan-blue dye (0.4%) (Sigma). The cell viability was evaluated by the percentage of death relative to the total cell, and cell growth curve was determined by number of live cells relative to the total number of cells.
(§2) The anti-proliferation effects of Compounds 17-31 on M21, CH27, H460, Hep3B and HSC-3 cells were evaluated by the trypan blue exclusion assay.

Another series has as its system CH27. Put plainly: trypan blue exclusion assay, CH27 cells. The conditions noted are these: CH27 human lung squamous carcinoma. The series is classed as cell-based. On the procedure:
CH27 cells (Human lung squamous carcinoma) were grown in monolayer culture in Dulbecco's modified Eagle's medium (DMEM; Life Technologies, Rockville, Md., USA) containing 5% FBS (HyClone, Logan, Utah, USA), 100 U/ml penicillin, […] streptomycin (Gibco BRL, Rockville, Md., USA) and 2 mM glutamine (Merck, Darmstadt, Germany).
as §1, §2

The test system of a further series is H460. Briefly: trypan blue exclusion assay, H460 cells. The conditions noted are these: NCI-H460, H460 human non-small cell lung cancer. It is filed as cell-based. The method, then:
(§3) Hep3B (human hepatocellular carcinoma) and H460 (lung non-small carcinoma) cells were grown in monolayer culture in Dulbecco's modified Eagle's medium (DMEM) (Life Technologies, Rockville, Md., USA) containing 5% fetal bovine serum (HyClone, Logan, Utah, USA), 100 U/ml penicillin and 100 μg/ml streptomycin (Gibco BRL, Rockville, Md., USA) and 2 mM glutamine (Merck, Darmstadt, Germany).
as §1, §2

Another series relates to Hep3B. Briefly: trypan blue exclusion assay, Hep3B cells. The series is classed as cell-based. The settings on record: Hep3B human hepatoma. On the procedure: as §3, §1, §2
A further series has as its system HSC-3. Briefly: trypan blue exclusion assay, HSC-3 cells. The conditions noted are these: for IC50: HSC-3 human squamous carcinoma, trypan blue exclusion assay. It is filed as cell-based, human. The method, then: The HSC-3 (human oral squamous cell carcinoma) were cultured in 1:1 Dulbecco's Modified Eagle's Medium (DMEM) and Ham's Nutrient Mixture F-12, containing 10% FBS (HyClone, Logan, Utah, USA), 100 U/ml penicillin, 100 μg/ml streptomycin (Gibco BRL, Rockville, Md., USA) and 2 mM glutamine (Merck, Darmstadt, Germany).
as §1, §2

Series [1] relates to M21, CH27, H460, Hep3B and HSC-3 cells. Briefly: trypan blue exclusion assay, cancer cell panel (summary). It is filed as cell-based. The conditions noted are these: summary of Table 2. The method, then:
as §1, §2

SMILES strings stand for the structures.

As for `COc1ccc2nc(-c3cccc4ccccc34)[nH]c(=O)c2c1` [Compound 17, 6-Methoxy-2-(naphthalen-1-yl) quinazolin-4-one], the IC50 in the series with M21 is 6.09 µM; with CH27, 0.089 µM; in the series with H460, 0.079 µM; with Hep3B, 1.87 µM; with HSC-3, > 10 µM. The “activity on HSC-3 cells” value in the series with HSC-3 (summary of Table 2) was “inactive”. For the same compound, the “cytotoxic effects toward cancer cells” value in series [1] is reported as “exhibited cytotoxic effects”.

`COc1ccc2nc(-c3c[nH]c4ccccc34)[nH]c(=O)c2c1` [Compound 18, 6-Methoxy-2-(1H-indol-3-yl) quinazolin-4-one] displayed a melting point of 311 to 312 °C. Further, in the series with M21, the IC50 was > 10 µM. In the series with CH27, the concentration for half-maximal inhibition (IC50) was > 10 µM. The 50% inhibitory concentration (IC50) with H460 was > 10 µM. Besides, the 50% inhibitory concentration (IC50) with Hep3B was > 10 µM. Further, the IC50 in the series with HSC-3 was > 10 µM.

`COc1ccc2nc(-c3csc4ccccc34)[nH]c(=O)c2c1` [Compound 19, 6-Methoxy-2-(benzo[b]thiophen-3-yl) quinazolin-4-one] had a melting point of 289 to 290 °C. For the same compound, the IC50 with M21 was > 10 µM. The half-maximal inhibitory concentration (IC50) with CH27 was > 10 µM. In addition, the IC50 in the series with H460 was > 10 µM. Besides, the IC50 in the series on Hep3B is > 10 µM. The 50% inhibitory concentration (IC50) in the series on HSC-3 was > 10 µM.

For the compound `CN(C)c1ccc2nc(-c3cccc4ccccc34)[nH]c(=O)c2c1` [Compound 20, 6-(N,N-Dimethylamino)-2-(naphthalen-1-yl) quinazolin-4-one], the IC50 with M21 amounted to 3.77 µM; in the series with CH27 it was 0.447 µM; in the series on H460 it was 0.506 µM; in the series with Hep3B it was 8.63 µM; with HSC-3 it was 0.202 µM. The “cytotoxic effects toward cancer cells” value in series [1] is on record as “exhibited cytotoxic effects”.

Take `CN(C)c1ccc2nc(-c3c[nH]c4ccccc34)[nH]c(=O)c2c1` [Compound 21, 6-(N,N-Dimethylamino)-2-(1H-indol-3-yl)quinazolin-4-one]: the melting point is > 300 °C. In addition, the IC50 in the series with M21 was > 10 µM. Besides, in the series with CH27, the IC50 is > 10 µM. In addition, the IC50 in the series with H460 is > 10 µM. Also, in the series on Hep3B, the IC50 is > 10 µM. The IC50 in the series on HSC-3 is > 10 µM.

`CN(C)c1ccc2nc(-c3csc4ccccc34)[nH]c(=O)c2c1` [Compound 22]: the melting point was > 300 °C. For the same compound, in the series on M21, the IC50 is > 10 µM. For the same compound, the IC50 in the series with CH27 is > 10 µM. Moreover, the IC50 with H460 is > 10 µM. In addition, the IC50 with Hep3B was > 10 µM. In addition, the IC50 in the series on HSC-3 is > 10 µM.

As to `O=c1[nH]c(-c2c[nH]c3ccccc23)nc2ccc(N3CCCC3)cc12` [Compound 24, 6-(Pyrrolidin-1-yl)-2-(1H-indol-3-yl)quinazolin-4-one], the IC50 in the series on M21 turned out to be 7.63 µM; in the series with CH27 it was 8.7 µM; in the series on H460 it was 8.81 µM; with Hep3B, 7.39 µM; with HSC-3, 1.89 µM. In addition, in series [1], the “cytotoxic effects toward cancer cells” value was “exhibited cytotoxic effects”.

For `O=c1[nH]c(-c2csc3ccccc23)nc2ccc(N3CCCCC3)cc12` [Compound 28], the melting point is > 300 °C. In the series on M21, the IC50 is > 10 µM. Besides, the IC50 in the series with CH27 is > 10 µM. In addition, the IC50 in the series on H460 is > 10 µM. For the same compound, the IC50 in the series on Hep3B is > 10 µM. The IC50 in the series with HSC-3 was > 10 µM.

In the case of `O=c1[nH]c(-c2c[nH]c3ccccc23)nc2ccc(N3CCOCC3)cc12` [Compound 30, 6-(Morpholino)-2-(1H-indol-3-yl)quinazolin-4-one], the melting point is > 300 °C. The IC50 in the series with M21 was > 10 µM. Besides, in the series on CH27, the IC50 was > 10 µM. Besides, the IC50 in the series with H460 was > 10 µM. In addition, in the series with Hep3B, the IC50 was > 10 µM. Moreover, in the series with HSC-3, the IC50 was > 10 µM.

Consider `O=c1[nH]c(-c2csc3ccccc23)nc2ccc(N3CCOCC3)cc12` [Compound 31, 6-(Morpholino)-2-(benzo[b]thiophen-3-yl) quinazolin-4-one], for which the melting point is > 300 °C. The half-maximal inhibitory concentration (IC50) with M21 is > 10 µM. Further, in the series on CH27, the half-inhibitory concentration (IC50) is > 10 µM. In addition, in the series with H460, the IC50 was > 10 µM. Besides, the IC50 in the series with Hep3B is > 10 µM. Also, the IC50 in the series with HSC-3 is > 10 µM.
